Values joined by “and” are separate entries in the source; they are usually repeats but may differ in a detail not shown here. Identical values can stand only once.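 Grown in 96-well plates, cells were treated for 48 hours with each compound at five concentrations. Insufficient inhibition: endpoint recorded as highest concentration tested. Here, GI50 denotes the concentration required for 50% inhibition of growth. TGI: concentration producing complete growth inhibition.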
Assays:
Test in all cases: growth of human tumour cells (NCI), 48 h
[1] = system: A549 NSCLC
[2] = system: RXF 393 renal
[3] = system: KM12 colon
[4] = system: MALME-3M melanoma
[5] = system: HOP-62 NSCLC
[6] = system: HCT-116 colon
[7] = system: TK-10 renal
[8] = system: OVCAR-3 ovarian
[9] = system: OVCAR-4 ovarian
[10] = system: SNB-75 CNS

| SMILES | GI50 [1] | TGI [1] | GI50 [2] | TGI [2] | GI50 [3] | TGI [3] | GI50 [4] [µM] | TGI [4] | GI50 [5] | TGI [5] | GI50 [6] | TGI [6] | GI50 [7] [µM] | TGI [7] [µM] | GI50 [8] | TGI [8] | GI50 [9] | TGI [9] | GI50 [10] | TGI [10] |
| --- | --- | --- | --- | --- | --- | --- | --- | --- | --- | --- | --- | --- | --- | --- | --- | --- | --- | --- | --- | --- |
| CCCOc1cc2ccccc2cc1C(=O)Nc1nc(NC)c2c(ccc3nccc32)[nH]1 | 0.978 µM | 2.39 µM | 0.404 µM | 1.68 µM | 0.295 µM | 1.46 µM | 1.15 | 2.54 µM | 0.779 µM | 2.28 µM | 0.35 µM | 1.24 µM | 1.36 | 2.68 | 0.248 µM | 1.13 µM | – | – | – | – |
| CN1CCN(c2ccc(OC(F)(F)F)c(Nc3ncc4c(n3)-c3c(c(C(N)=O)nn3CCO)CC4)c2)CC1 | 0.0745 µM and 0.169 µM | 16 µM and > 10 µM | 0.398 µM and 0.102 µM | 21 µM and > 10 µM | 0.0328 µM and 0.0354 µM | 35.4 µM and > 10 µM | – | 29.8 µM and > 10 µM | 0.0723 µM and 0.0547 µM | 27.1 µM and > 10 µM | 0.0353 µM and 0.0452 µM | 18.7 µM and > 10 µM | – | – | 0.037 µM and 0.0424 µM | 18.2 µM and > 10 µM | 6.92 µM and 1.39 µM | 41.2 µM and > 10 µM | 0.0582 µM and 0.145 µM | 11.7 µM and 1.49 µM |
| N#Cc1cnc2cc(OC[C@@H](O)CO)c(NC(=O)C3CCCC3)cc2c1Nc1ccc(OCc2cccc(F)c2)c(Cl)c1 | 6.74 µM | 14.9 µM | 1.29 µM | 3.41 µM | 3.84 µM | 14.2 µM | – | – | 1.03 µM | 2.62 µM | 0.4 µM | 1.1 µM | 1.99 | 7.21 | 0.874 µM | 1.82 µM | 0.514 µM | 1.28 µM | 2.19 µM | > 50 µM |
| COc1cc(Cl)cc(-c2nn(-c3cccc(NC(=O)Nc4cccc(C(F)(F)F)c4)c3)cc2-c2ccncc2)c1 | 0.726 µM | 7.42 µM | 1.4 µM | 4.35 µM | 0.611 µM | 4.79 µM | 1.79 | 5.91 µM | 2.81 µM | 13.1 µM | 0.754 µM | 7.61 µM | – | – | 0.592 µM | 4.62 µM | 2.54 µM | 38.8 µM | 1.78 µM | 13.9 µM |
| O=S(=O)(NCCNc1nccc(-c2c(-c3ccc(F)c(O)c3)nc3sccn23)n1)c1ccc(Cl)cc1 | 1.69 µM | > 50 µM | 0.651 µM | 4.7 µM | – | – | 1.69 | 22.7 µM | 6.17 µM | 21.5 µM | 1.54 µM | > 50 µM | 5.16 | 34.6 | 2.56 µM | 14.9 µM | 2.79 µM | > 50 µM | 1.13 µM | 9.31 µM |
| O=c1c2cc(Br)cc(Br)c2nc(CCCl)n1-c1ccc(O)c([N+](=O)[O-])c1 | – | 31.7 µM | – | – | – | 33.7 µM | – | 36.4 µM | – | 33 µM | – | 28.1 µM | – | 32.7 | – | 33.7 µM | – | 29 µM | – | 39.2 µM |
| COc1ccc(C(C)c2cc(OC)c(OC)c(OC)c2)cc1 (stereo not drawn) | 0.189 µM | > 50 µM | 0.126 µM | > 50 µM | 0.058 µM | > 50 µM | – | – | 0.259 µM | > 50 µM | – | – | > 50 | > 50 | 0.0889 µM | 0.384 µM | 2.97 µM | > 50 µM | – | – |
| CCOC(=O)C(=O)Nc1cc(Cl)c(Cl)cc1Cl | – | – | – | > 100 µM | – | > 100 µM | – | > 100 µM | – | > 100 µM | – | > 100 µM | – | > 100 | – | > 100 µM | – | > 100 µM | – | > 100 µM |
| CCN(CC)c1c(-c2ccccc2)n[nH]c1C(=O)OC | 31.6 µM | > 100 µM | 21.9 µM | 56.9 µM | 17.8 µM | 47 µM | 15.9 | 41.5 µM | 44.6 µM | > 100 µM | – | – | 22.5 | 59.2 | 15.1 µM | 36.8 µM | 54.1 µM | > 100 µM | 33.9 µM | > 100 µM |
| NCCCOc1cc2ccccc2cc1C(=O)Nc1ccc(Cl)cc1OC(=O)c1cc2ccccc2cc1OCCCN | – | – | 0.61 µM | 1.69 µM | 0.19 µM | 0.394 µM | – | – | 0.208 µM | 0.515 µM | 0.175 µM | 0.313 µM | 0.545 | 1.07 | 0.612 µM | 1.43 µM | 0.146 µM | 0.306 µM | 0.119 µM | 0.859 µM |
| O=C1C(=C2CCCC2)CCC1CN1CCCCC1 (stereo not drawn) | – | > 100 µM | – | 30 µM | – | 39.7 µM | – | 30.5 µM | – | – | – | 38.1 µM | – | 27.1 | – | 30.6 µM | – | 30.3 µM | – | 15.5 µM |
| C[C@H]1C/C=C/[C@H]2[C@@H]3O[C@]3(C)[C@@H](C)[C@H]3[C@H](Cc4ccccc4)NC(=O)[C@]32OC(=O)O/C=C/[C@@](C)(O)C1=O | 0.0462 µM | – | 0.0125 µM | – | 11.7 µM and 29.1 µM | 125 µM and > 250 µM | 0.0212 | 2.91 µM and 3.5 µM and 0.877 µM | 0.0125 µM and 0.025 µM | 0.185 µM and 0.164 µM and 0.067 µM | 0.0578 µM and 0.0207 µM and 0.0301 µM | 6.75 µM and 16.3 µM and 33.6 µM | – | – | 0.025 µM | – | 0.396 µM | > 79.2 µM and 46.3 µM and > 250 µM | 0.025 µM | – |
| CCOC(=O)C1C=C2O[C@@H]3OC4(CCCCC4)O[C@@H]3C2C2C(=O)CCC(=O)[C@@]12C(=O)OC (stereo partly drawn) | – | > 100 µM | – | – | – | > 100 µM | – | > 100 µM | – | > 100 µM | – | > 100 µM | – | – | – | > 100 µM | – | > 100 µM | – | > 100 µM |
| COc1cc(-n2cc(-c3ccccc3)[nH]c2=O)cc(OC)c1OC | 38.9 µM | > 100 µM | – | – | > 100 µM | > 100 µM | 33.7 | > 100 µM | 39.1 µM | > 100 µM | 58.1 µM | > 100 µM | 39.6 | > 100 | 23.2 µM | > 100 µM | 17.1 µM | 52.8 µM | 13.9 µM | 34 µM |
| CC(=O)Oc1ccc2c(c1)[C@@]1(C)CCCC(C)(C)[C@@H]1CC2 | 24.7 µM | 64.8 µM | 41.2 µM | 86.3 µM | 19.2 µM | 45 µM | – | – | 15.9 µM | 30.2 µM | 18.4 µM | 32.8 µM | – | – | 15.8 µM | 41.1 µM | – | – | – | – |
| Cc1cccc(C)c1NC(=O)CCC/C(CC(=O)c1ccc(F)cc1)=N\NC(=O)C(=O)NN | – | > 100 µM | – | > 100 µM | – | > 100 µM | – | > 100 µM | – | – | – | > 100 µM | – | > 100 | – | > 100 µM | – | > 100 µM | – | > 100 µM |
